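Following 48 hours of exposure in 96-well plates, responses at five concentrations were used to interpolate endpoints linearly. GI50 is the concentration that inhibits growth by half.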 Calls of active or inactive are those of the source. Cut-off read from the data, not from the text of the source: active = GI50 up to about 1.1 µM and inactive = higher.

From ChEMBL document CHEMBL1201862, “PubChem BioAssay data set” (2004) come the findings set out here.

Holding throughout (experiment): DTP human tumour cell line panel, 48 h
The subject of assay [1] is COLO 205.
The subject of assay [2] is SR.
Assay [3] concerns OVCAR-5.
Assay [4] has as its system PC-3.
Assay [5] concerns IGROV-1.
Assay [6] deals with HCC 2998.
Assay [7] concerns ACHN.
Assay [8] concerns Malme-3M.
Assay [9] relates to CAKI-1.
The test system of assay [10] is OVCAR-8.
For assay [11], the system named is CCRF-CEM.
The subject of assay [12] is NCI/ADR-RES.
In assay [13] the test system is A498.
The subject of assay [14] is OVCAR-4.
Assay [15] concerns UACC-257.
Assay [16] deals with A549.
The subject of assay [17] is RXF 393.
Assay [18] deals with HCT-15.
In assay [19] the test system is SF-268.
Assay [20] has as its system TK-10.

With `COC(=O)C(CCSC)NC(=O)Cc1ccc(C(=O)c2ccccc2)cc1` (centres undefined), the GI50 is > 100 µM (inactive) in assay [1]; 31.3 µM (inactive) in [2]; > 100 µM (inactive) in assay [3]; 56.8 µM (inactive) in assay [4]; 64.3 µM (inactive) in [5]; > 100 µM (inactive) in assay [6]. In addition, the GI50 in [7] was > 100 µM (inactive); in assay [8], > 100 µM (inactive); in [9] it was 70.3 µM (inactive); in assay [10] it was 73.3 µM (inactive); in [11], 42.5 µM (inactive); in assay [12], 26.7 µM (inactive). For the same molecule, the GI50 in assay [13] is > 100 µM (inactive); in [14] it was > 100 µM (inactive); in assay [15], > 100 µM (inactive); in [16] it was 38.4 µM (inactive); in assay [17], > 100 µM (inactive); in assay [18], 36.1 µM. In addition, the GI50 in assay [19] is > 100 µM (inactive).

On to `COc1ccc(/C(=N\Nc2ccccn2)c2ccccn2)cc1`, for which the GI50 in [1] is < 0.01 µM (active); in assay [2], 0.0547 µM (active); in [3], 2.54 µM (inactive); in assay [4] it was 0.0306 µM (active); in assay [5] it was 0.0167 µM (active); in assay [6], 2.93 µM (inactive). The 50% growth inhibitory concentration (GI50) in assay [7], in assay [8], in assay [9], in assay [10], in assay [11] and in assay [12] was < 0.01 µM (active) each time. Also, the GI50 is 38.2 µM (inactive) in assay [13]; 11.4 µM (inactive) in [14]; < 0.01 µM (active) in [15]; 0.149 µM (active) in assay [16]; 2.59 µM (inactive) in assay [17]; 0.0103 µM in [18]. Moreover, the GI50 in [19] is 0.0311 µM (active).

Consider `CCCCCCCCCc1cc(-c2ccc(C=O)s2)sc1-c1ccc(C=O)s1`, for which the GI50 was 20 µM (inactive) in [1]; 4.08 µM (inactive) in assay [2]; 29.5 µM (inactive) in [3]; 37.8 µM (inactive) in assay [4]; 21 µM (inactive) in [5]; 6.47 µM (inactive) in assay [20]. Further, the GI50 in assay [6] is 35.6 µM (inactive); in [7], 30.7 µM (inactive); in [8], 40.5 µM (inactive); in assay [10] it was 10.4 µM (inactive); in [11], 2.23 µM (inactive); in [12], 19.6 µM (inactive). Besides, the GI50 in [13] is 1.6 µM (inactive); in [14] it was 24.4 µM (inactive); in assay [15], 13.6 µM (inactive); in assay [16] it was 53.1 µM (inactive); in assay [17], 8.81 µM (inactive); in [18], 24.8 µM. Further, in assay [19], the GI50 is 34.8 µM (inactive).

For the molecule `CCN(CC)CC(=O)Nc1c(C(N)=O)nnn1Cc1cc(Cl)c(C(=O)c2ccc(Cl)cc2)c(Cl)c1`, the GI50 in assay [1] is 16.9 µM (inactive); in [2] it was 23.8 µM (inactive); in assay [3] it was 19.5 µM (inactive); in assay [4], 16.8 µM (inactive); in assay [5] it was 21.4 µM (inactive); in [20], 22.8 µM (inactive). Besides, the GI50 in assay [6] was 17.7 µM (inactive); in assay [7], 29.7 µM (inactive); in assay [9], 22.5 µM (inactive); in assay [10] it was 17.7 µM (inactive); in [11], 18 µM (inactive); in assay [12], 15.8 µM (inactive). Also, the GI50 in assay [13] is 37.9 µM (inactive); in [14], 31 µM (inactive); in [15], 18.1 µM (inactive); in assay [16], 22.3 µM (inactive); in assay [17], 10.4 µM (inactive); in [18], 16.6 µM. For the same molecule, in assay [19], the GI50 was 19.2 µM (inactive).

As to `C1CCN2CC3CCCN4CCCC(C2C1)C34` (centres undefined), the GI50 in assay [1], in assay [2], in assay [3], in assay [4], in assay [5] and in [20] was > 100 µM (inactive) throughout. Further, the GI50 in assay [6], in [7], in [8], in [9], in assay [10] and in assay [11] was > 100 µM (inactive) each time. The GI50 in assay [12] was > 100 µM (inactive); in assay [13], > 100 µM (inactive); in assay [15], > 100 µM (inactive); in assay [16] it was > 100 µM (inactive); in [17], > 100 µM (inactive); in [18], greater than 100 µM. Besides, the GI50 in assay [19] was > 100 µM (inactive).

Take `Cc1ccc(S(=O)(=O)CNC(=O)C(O)(O)C(F)(F)F)cc1`: the GI50 in [1], in [2], in [3], in assay [4], in assay [5] and in [20] was > 100 µM (inactive) throughout. Besides, the GI50 in assay [6], in assay [8], in [9], in assay [10], in [11] and in [12] was > 100 µM (inactive) in each case. Further, the GI50 is > 100 µM (inactive) in assay [13]; > 100 µM (inactive) in assay [14]; > 100 µM (inactive) in assay [15]; > 100 µM (inactive) in assay [16]; > 100 µM (inactive) in [17]; greater than 100 µM in assay [18]. The GI50 in assay [19] was > 100 µM (inactive).

For the molecule `Cc1nc(C(N)=S)sc1C(=O)CC(=O)C(=O)Nc1nc2ccccc2[nH]1`, the GI50 in assay [2], in [3], in assay [4], in [5], in [20] and in assay [6] was > 100 µM (inactive) in each case. The GI50 in assay [7], in assay [8], in [9], in assay [10], in [12] and in assay [13] was > 100 µM (inactive) in each case. The GI50 in [14] was > 100 µM (inactive); in [15], > 100 µM (inactive); in [16], > 100 µM (inactive); in assay [17], > 100 µM (inactive); in assay [18], greater than 100 µM; in assay [19], > 100 µM (inactive).

As to `C[C@@H](NC(C#N)c1ccco1)c1ccccc1` (some centres undefined), the GI50 is > 100 µM (inactive) in [2]; > 100 µM (inactive) in [3]; > 100 µM (inactive) in assay [4]; > 100 µM (inactive) in [5]; > 100 µM (inactive) in [20]; 32.7 µM (inactive) in assay [6]. Further, the GI50 in assay [7], in assay [8], in assay [10], in [11], in [12] and in assay [13] was > 100 µM (inactive) in each case. The GI50 in [15] was > 100 µM (inactive); in assay [16], > 100 µM (inactive); in assay [17], > 100 µM (inactive); in assay [18] it was greater than 100 µM; in [19], > 100 µM (inactive).
